Earlier results in patent US10500196B2 (Aequus Pharmaceuticals Inc., priority 2015, dated 2019).

Settings: oral DICLEGIS tablet

In the case of `Cc1ncc(CO)c(CO)c1O.Cl` [Pyridoxine Hydrochloride, 3,4-pyridinedimethanol,5-hydroxy-6-methyl-,hydrochloride], the “absorption when administered with food” value is listed as “delayed” and the bioavailability with food is listed as “reduces”.
